Results from patent US11091497B2, “Pyrano[3,4-b]pyrazine kappa opioid receptor ligands for treating addiction, pruritus, pain, and inflammation” (The Rockefeller University, priority 2017, dated 2021).
Read-outs that look alike come from different tables or passages of the source.

Legend:
[1] = target: T1, kappa opioid receptor (PathHunter U2OS hOPRK1 β-arrestin cell line) (Homo sapiens, UniProt P41145); assay: β-arrestin coupling (PathHunter Detection Kit); format: cell-based; conditions: U2OS, read-out: β-arrestin coupling % efficacy at 10 μM
T1 construct: host or cells: U2OS (PathHunter U2OS hOPRK1 β-arrestin cell line)
Description: (§1) Membranes from cells stably expressing kappa, mu or delta opioid receptor constructs (PathHunter U2OS hOPRK1, CHO-K1 rOPRM1 and CHO-K1 OPRD1 β-arrestin cell line, DiscoverX, Fremont, Calif., USA) were used. Cells were scraped from tissue culture plates, homogenized with a tissue tearor homogenizer in membrane buffer (10 mM Tris, 100 mM NaCl, and 1 mM EDTA; pH 7.4), and centrifuged at 20,000 g for 30 minutes at 4° C. and frozen at −80° C. until use. Prior to use, the pellets were resuspended in binding buffer (50 mm Tris, 100 mm NaCl, pH 7.4), homogenized with a dounce homogenizer and […] incubated with 1.0 nM of the appropriate tritiated ligand ([^3H]U69,593, [^3H]DAMGO or [^3H]DPDPE for kappa, mu or delta binding, respectively) and the appropriate concentration of compound for 60 minutes at 30° C. Membranes with bound tritiated ligand were collected on Whatman GF/B filter paper (Brandel, Gaithersburg, Md., USA) utilizing a Brandel harvester. Bound tritiated ligand was quantified using a TriCarb-2900TR scintillation counter (Packard, Downers Grove, Ill., USA) following addition of 4 ml ReadySafe scintillation fluid (Beckman Coulter, Indianapolis, Ind., USA). Compiled data for each compound was normalized to the maximal binding in the absence of compound, with non-specific binding subtracted. Curve fitting was done in Microcal Origin 17.0 software using logistic sigmoidal fit, to determine IC50. GTPgammaS Membranes from U2OS cells stably expressing human kappa opioid receptors were used. Cells were scraped from tissue culture plates, homogenized with a tissue tearor homogenizer in membrane buffer (10 mM Tris, 100 mM NaCl, and 1 mM EDTA; pH 7.4), and centrifuged at 20,000 g for 30 minutes at 4° C. and frozen at −80° C. until use. Prior to use, the pellets were resuspended in assay buffer (50 mm Tris, 100 mm NaCl, 5 mM MgCl2, and 1 mM EDTA; pH 7.4) and homogenized with a dounce homogenizer and 50 μg incubated with 0.1 nM [35 S]GTPγS, 10 nM GDP, and the appropriate concentration of agonist for 20 minutes at 30° C. To test inhibition, all samples were incubated with 100 nM U69,593 as well as the appropriate concentration of compound. Membranes with bound [35 S]GTPγS were collected on Whatman GF/B filter paper (Brandel, Gaithersburg, Md., USA) utilizing a Brandel harvester. Bound [35 S]GTPγS was quantified using a TriCarb-2900TR scintillation counter (Packard, Downers Grove, Ill., USA) following addition of 4 mL ReadySafe scintillation fluid (Beckman Coulter, Indianapolis, Ind., USA). […] NA indicates not applicable. For each compound, curve fitting was done in Microcal Origin 17.0 software using logistic sigmoidal fit, to determine EC50 and maximal percent stimulation, which in turn was normalized to the maximal percent stimulation of the test full agonist compound U69,593 to determine % efficacy. β2-Arrestin Experiments were conducted using the PathHunter Detection Kit obtained from DiscoverX. Cells stably expressing kappa, mu or delta opioid receptor constructs (PathHunter U2OS hOPRK1, CHO-K1 rOPRM1 and CHO-K1 OPRD1 β-arrestin cell line, DiscoverX, Fremont, Calif., USA) were plated in 96- or 384-well plates. Cells were stimulated with the compounds for 90 minutes at 37° C. To test inhibition, all samples were incubated with 100 nM U69,593 as well as the appropriate concentration of compound. Cells were then incubated for 60 minutes in the presence of galoctosidase substrate, yielding chemiluminescent product. Chemiluminescence was measured using a Synergy Neo microplate reader (BioTek, Winooski, Vt., USA). Antagonism assays were done in the same manner, in the presence of 300 nM U69,593, 1 μM DAMGO or 1 μM DPDPE for KOP-R, MOP-R or DOP-R assays, respectively. […] NA indicates not applicable. […]

[2] = target: T2, human kappa opioid receptors (Homo sapiens, UniProt P41145); assay: [35S]GTPγS stimulation, membranes from U2OS cells; format: biochemical; conditions: for Emax: read-out: GTPγS stimulation % efficacy
T2 construct: expressed in transfected cells; host or cells: U2OS
Description: Membranes from cells stably expressing kappa, mu or delta opioid receptor constructs (PathHunter U2OS hOPRK1, CHO-K1 rOPRM1 and CHO-K1 OPRD1 β-arrestin cell line, DiscoverX, Fremont, Calif., USA) were used. Cells were scraped from tissue culture plates, homogenized with a tissue tearor homogenizer in membrane buffer (10 mM Tris, 100 mM NaCl, and 1 mM EDTA; pH 7.4), and centrifuged at 20,000 g for 30 minutes at 4° C. and frozen at −80° C. until use. Prior to use, the pellets were resuspended in binding buffer (50 mm Tris, 100 mm NaCl, pH 7.4), homogenized with a dounce homogenizer and […] incubated with 1.0 nM of the appropriate tritiated ligand ([^3H]U69,593, [^3H]DAMGO or [^3H]DPDPE for kappa, mu or delta binding, respectively) and the appropriate concentration of compound for 60 minutes at 30° C. Membranes with bound tritiated ligand were collected on Whatman GF/B filter paper (Brandel, Gaithersburg, Md., USA) utilizing a Brandel harvester. Bound tritiated ligand was quantified using a TriCarb-2900TR scintillation counter (Packard, Downers Grove, Ill., USA) following addition of 4 ml ReadySafe scintillation fluid (Beckman Coulter, Indianapolis, Ind., USA). Compiled data for each compound was normalized to the maximal binding in the absence of compound, with non-specific binding subtracted. Curve fitting was done in Microcal Origin 17.0 software using logistic sigmoidal fit, to determine IC50. GTPgammaS Membranes from U2OS cells stably expressing human kappa opioid receptors were used. Cells were scraped from tissue culture plates, homogenized with a tissue tearor homogenizer in membrane buffer (10 mM Tris, 100 mM NaCl, and 1 mM EDTA; pH 7.4), and centrifuged at 20,000 g for 30 minutes at 4° C. and frozen at −80° C. until use. Prior to use, the pellets were resuspended in assay buffer (50 mm Tris, 100 mm NaCl, 5 mM MgCl2, and 1 mM EDTA; pH 7.4) and homogenized with a dounce homogenizer and 50 μg incubated with 0.1 nM [35 S]GTPγS, 10 nM GDP, and the appropriate concentration of agonist for 20 minutes at 30° C. To test inhibition, all samples were incubated with 100 nM U69,593 as well as the appropriate concentration of compound. Membranes with bound [35 S]GTPγS were collected on Whatman GF/B filter paper (Brandel, Gaithersburg, Md., USA) utilizing a Brandel harvester. Bound [35 S]GTPγS was quantified using a TriCarb-2900TR scintillation counter (Packard, Downers Grove, Ill., USA) following addition of 4 mL ReadySafe scintillation fluid (Beckman Coulter, Indianapolis, Ind., USA). […] For each compound, curve fitting was done in Microcal Origin 17.0 software using logistic sigmoidal fit, to determine EC50 and maximal percent stimulation, which in turn was normalized to the maximal percent stimulation of the test full agonist compound U69,593 to determine % efficacy. β2-Arrestin Experiments were conducted using the PathHunter Detection Kit obtained from DiscoverX. Cells stably expressing kappa, mu or delta opioid receptor constructs (PathHunter U2OS hOPRK1, CHO-K1 rOPRM1 and CHO-K1 OPRD1 β-arrestin cell line, DiscoverX, Fremont, Calif., USA) were plated in 96- or 384-well plates. Cells were stimulated with the compounds for 90 minutes at 37° C. To test inhibition, all samples were incubated with 100 nM U69,593 as well as the appropriate concentration of compound. Cells were then incubated for 60 minutes in the presence of galoctosidase substrate, yielding chemiluminescent product. Chemiluminescence was measured using a Synergy Neo microplate reader (BioTek, Winooski, Vt., USA). Antagonism assays were done in the same manner, in the presence of 300 nM U69,593, 1 μM DAMGO or 1 μM DPDPE for KOP-R, MOP-R or DOP-R assays, respectively.

[3] = target: T3, kappa opioid receptor (PathHunter U2OS hOPRK1 membranes) (Homo sapiens, UniProt P41145); assay: Tritiated U69,593 binding for KOP-R membranes
T3 construct: host or cells: U2OS (PathHunter U2OS hOPRK1 β-arrestin cell line)
Description: Tritiated U69,593 binding for KOP-R membranes; tritiated DAMGO binding for MOP-R membranes; and tritiated DPDPE binding for DOP-R membranes:
as §1

T3 sequence (P41145 whole entry): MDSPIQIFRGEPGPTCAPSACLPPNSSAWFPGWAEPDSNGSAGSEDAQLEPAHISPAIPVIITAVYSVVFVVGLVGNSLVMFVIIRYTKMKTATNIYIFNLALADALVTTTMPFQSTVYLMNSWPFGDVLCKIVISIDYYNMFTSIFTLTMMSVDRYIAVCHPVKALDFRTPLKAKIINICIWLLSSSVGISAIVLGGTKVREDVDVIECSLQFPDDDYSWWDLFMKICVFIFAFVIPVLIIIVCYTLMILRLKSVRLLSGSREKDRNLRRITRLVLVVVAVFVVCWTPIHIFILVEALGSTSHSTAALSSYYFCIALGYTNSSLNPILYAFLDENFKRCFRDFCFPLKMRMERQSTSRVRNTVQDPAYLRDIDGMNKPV
T2 sequence (P41145 whole entry): as above
T1 sequence (P41145 whole entry): as above

Structure (SMILES) | Emax at 10 µM [1] | EC50 [2] | Emax [2] | IC50 [3] | EC50 ([2]; 20 minutes at 30° C., read-out: GTPγS stimulation EC50) | IC50 ([3]; 1.0 nM [3H]U69,593, 60 minutes at 30° C., read-out: Binding IC50)
CS(=O)(=O)N1CCN(C(=O)Cc2ccc(Cl)c(Cl)c2)[C@H]2[C@H](N3CCCC3)COC[C@@H]21 (single isomer, unassigned) [Example 5A44B] | 70% | 4.6 nM | 105% | 18 nM |  | 
O=C(Cc1ccc(Cl)c(F)c1)N1CCN[C@@H]2COC[C@H](N3CCCC3)[C@H]21 (racemic) [Example 5A65] | 20% |  | 121% | 68 nM | 136 nM | 
O=C(Cc1ccc(Cl)c(Cl)c1)N1CCN(CC2CCC2)[C@@H]2COC[C@H](N3CCCC3)[C@H]21 (racemic) [Example 5A55] | 40% | 21 nM | 67% | 57 nM |  | 
O=C(Cc1ccc(Cl)cc1)N1CCN[C@@H]2COC[C@H](N3CCCC3)[C@H]21 (racemic) [Example 5A66] | 20% | 566 nM | 140% |  |  | 456 nM
